Test results as given in patent US20150044346A1, “USE OF OXAZOLINES AS AROMA/FLAVOUR PRECURSORS” (NESTEC S.A., priority 2012, published 2015).
Values joined by “and” are separate entries in the source; they are usually repeats but may differ in a detail not shown here. Equal values may be shown once. Each block holds one compound with its values, some of them ahead of it.

Experiments:
Assay type in all cases: physicochemical
[1] = Release of Strecker aldehyde from 3-oxazoline precursor stirred in water at 37° C. (stable isotope dilution, HS-GC-MS / GC-MS); details: for isomer I (formed) (mol %) / isomer II (unreacted) (mol %): starting from isomer II; for isomer I (unreacted) (mol %) / isomer II (formed) (mol %): starting from isomer I
[2] = Headspace GC-MS release of Strecker aldehydes from spiked chocolate on addition of saliva; details: headspace injection; for Concentration in “release sample” (after addition of saliva): spiked chocolate 2 g + saliva 2 mL, 5 min at 37° C.; for Concentration in blank sample (prior addition of saliva): spiked chocolate 2 g melted at 37° C.
Procedure: To further confirm the PTR-MS data, all experiments are repeated using a headspace GC-MS system. Commercial chocolate (50% of cocoa content) was frozen in liquid nitrogen and ground to a powder using a mixer. An aliquote (25 g) was melted at 35° C. using a water bath and [^2H6]-methylpropanal, [^2H2]-3-methylbutanal as well as [^13C2]-phenylacetaldehyde were added. After stirring for 5 min, the chocolate was cooled to room temperature and used for all further headspace experiments (“spiked chocolate”). The newly spiked chocolate (2 g) was weighed into a headspace vial (10 mL; sealed with a gastight septum) containing a stirring bar. The chocolate was melted at 37° C. for 5 min under stirring. Then, the first injection (1 mL) was done at 37° C. used as blank sample. Afterwards, the sample was cooled to approx. 16° C. After 30 min, saliva (2 mL) was added through the septum via a syringe, and the sample was again warmed to 37° C. under stirring. After a further 5 min, the second injection (1 mL) was done again at 37° C. (“release sample”). All experiments were done in triplicates. 2-Methylbutanal was quantified using [^2H2]-3-methylbutanal.

[3] = PTR-MS release of Strecker aldehydes from spiked chocolate on addition of water or saliva; details: spiked chocolate 5 g, water (5 mL, pH 4) or saliva (5 mL), 37° C.; FIG. 2, FIG. 3
Procedure: Commercial chocolate (50% of cocoa content) was frozen in liquid nitrogen and ground to a powder using a mixer. An aliquote (50 g) was melted at 35° C. using a water bath and [^2H2]-3-methylbutanal as well as [^13C2]-phenylacetaldehyde were added. After stirring for 5 min, the chocolate was cooled to room temperature and used for all further PTR-MS experiments (“spiked chocolate”).
5.0 g of spiked chocolate was weighed into an iodine flask (200 mL; sealed with a gastight septum) containing a stirring bar. The chocolate was melted at 37° C. for 5 min under stirring. Afterwards, the flask was connected to a PTR-MS instrument via a peek capillary (experiments were done at 37° C.). After defined time (details are given in the respective figures via number of cycles), water (5 mL, pH 4) or saliva (5 mL), respectively, was singly added through the septum via a syringe.
As blank, methylpropanal (2.5 μg), 3-methylbutanal (6.25 μg), phenylacetaldehyde (25 μg), [^2H2]-3-methylbutanal (4.3 μg), and [^13C2]-phenylacetaldehyde (20 μg) were added to sunflower oil (10 g) in an iodine flask (200 mL). Following parameters are used for PTR-MS measurement: inlet temperature 120° C., chamber temperature 80° C., inlet flow 70 mL/min. The mass traces and the dwell time used to monitor Strecker aldehydes are shown below: […]

[4] = Impact of pH value on release of Strecker aldehyde from 3-oxazoline precursor in buffer solution at 37° C.
Procedure: (§1) 2-(2-Methylpropyl)-5-methyl-3-oxazoline (dissolved in pentane/diethyl ether; 2 mL) was added to ethanol (0.5 mL). The pentane/diethyl ether was carefully evaporated, and finally made up to 5 mL with ethanol. […] A control experiment was performed with 2-(2-methylpropyl)-5-methyl-3-oxazoline and the respective standard without adding the respective buffer solution. For headspace measurements, the samples were directly subjected to HS-GC-MS. For liquid measurements, the samples were cooled in an ice bath and extracted with diethyl ether (3×15 mL; liquid-liquid extraction). The organic phases were combined, dried over anhydrous sodium sulphate, and the solvent was distilled off (20° C., 500 mbar) to about 4 mL. An aliquot (2 μL) was used for the stable isotope dilution assays ((GC-) GC-MS).
as §1, with “2-Methylphenyl-5-methyl-3-oxazoline” for “2-(2-Methylpropyl)-5-methyl-3-oxazoline”, “2-methylphenyl-5-methyl-3-oxazoline” for “2-(2-methylpropyl)-5-methyl-3-oxazoline”

[5] = 5 min, stirred in water at 37° C.
[6] = 15 min, stirred in water at 37° C.
[7] = 30 min, stirred in water at 37° C.
[8] = Control experiment without addition of water
[9] = Control without addition of water
[10] = Control experiment without addition of water, in relation to amount of precursor used

- phenylacetaldehyde (mol %) generated from precursor [1, 5]: 17.2 mol %
- phenylacetaldehyde (mol %) generated from precursor ([1]; 5 min, stirred in water at 37° C., listed as 2-methylphenyl-5-methyl-2-oxazoline isomer II): 17.2 mol %
- isomer I (formed) (mol %) ([1]; 5 min, water 37° C.): 9.0 mol %
- isomer II (unreacted) (mol %) ([1]; 5 min, water 37° C.): 28.6 mol %
- phenylacetaldehyde (mol %) generated from precursor [1, 6]: 32.2 mol %
- phenylacetaldehyde (mol %) generated from precursor ([1]; 15 min, stirred in water at 37° C., listed as 2-methylphenyl-5-methyl-2-oxazoline isomer II): 32.2 mol %
- isomer I (formed) (mol %) ([1]; 15 min, water 37° C.): 5.4 mol %
- isomer II (unreacted) (mol %) ([1]; 15 min, water 37° C.): 26.0 mol %
- phenylacetaldehyde (mol %) generated from precursor [1, 7]: 46.5 mol %
- phenylacetaldehyde (mol %) generated from precursor ([1]; 30 min, stirred in water at 37° C., listed as 2-methylphenyl-5-methyl-2-oxazoline isomer II): 46.5 mol %
- isomer I (formed) (mol %) ([1]; 30 min, water 37° C.): 2.7 mol %
- isomer II (unreacted) (mol %) ([1]; 30 min, water 37° C.): 20.2 mol %
- phenylacetaldehyde (mol %) generated from precursor [1, 8]: 0.3 mol %
- phenylacetaldehyde (mol %) generated from precursor ([1]; Control experiment without addition of water, listed as 2-methylphenyl-5-methyl-2-oxazoline isomer II): 0.3 mol %
- isomer I (formed) (mol %) [1, 9]: 1.8 mol %
- isomer II (unreacted) (mol %) [1, 9]: 98.2 mol %
SMILES: Cc1ccccc1C1N=CC(C)O1 (single isomer, unassigned; isomer ii) [2-methylphenyl-5-methyl-3-oxazoline isomer II, 2-methylphenyl-5-methyl-3-oxazoline]

- 2-methylbutanal (mol %) generated from precursor [1, 5]: 14.6 mol %
- 2-methylbutanal (mol %) generated from precursor [1, 6]: 33.3 mol %
- 2-methylbutanal (mol %) generated from precursor [1, 7]: 55.6 mol %
- 2-methylbutanal (mol %) generated from precursor [1, 8]: 1.1 mol %
SMILES: CCC(C)C1N=CC(C)O1 (single isomer, unassigned) [2-(1-methylpropyl)-5-methyl-3-oxazoline]

- Concentration in “release sample” (after addition of saliva) [2]: 3009 μg/kg of chocolate
- Concentration in blank sample (prior addition of saliva) [2]: 354 μg/kg of chocolate
- release from spiked chocolate after addition of water or saliva (PTR-MS) [3]: clearly increased
SMILES: CCC(C)C=O (centres unmarked) [2-methylbutanal]

- phenylacetaldehyde (mol %) generated from precursor [1, 5]: 16.6 mol %
- isomer I (unreacted) (mol %) ([1]; 5 min, water 37° C.): 31.8 mol %
- isomer II (formed) (mol %) ([1]; 5 min, water 37° C.): 7.1 mol %
- phenylacetaldehyde (mol %) generated from precursor [1, 6]: 23.1 mol %
- isomer I (unreacted) (mol %) ([1]; 15 min, water 37° C.): 31.1 mol %
- isomer II (formed) (mol %) ([1]; 15 min, water 37° C.): 6.3 mol %
- phenylacetaldehyde (mol %) generated from precursor [1, 7]: 42.5 mol %
- isomer I (unreacted) (mol %) ([1]; 30 min, water 37° C.): 22.3 mol %
- isomer II (formed) (mol %) ([1]; 30 min, water 37° C.): 5.8 mol %
- phenylacetaldehyde (mol %) generated from precursor [1, 8]: 0.2 mol %
- isomer I (unreacted) (mol %) [1, 9]: 98.0 mol %
- isomer II (formed) (mol %) [1, 9]: 2.0 mol %
- corresponding isomer II formed from purified isomer I ([1]; after 5 min, water 37° C.): 7%
- phenylacetaldehyde liberated ([1]; after 5 min, water 37° C.): 17%
- phenylacetaldehyde liberated ([1]; after 15 min, water 37° C.): > 20%
- phenylacetaldehyde liberated ([1]; after 30 min, water 37° C.): > 40% and 43%
SMILES: Cc1ccccc1C1N=CC(C)O1 (single isomer, unassigned; isomer i) [2-methylphenyl-5-methyl-3-oxazoline isomer I, 2-methylphenyl-5-methyl-3-oxazoline]

- phenylacetaldehyde (mol %) generated from precursor ([4]; pH 5, Control without addition of buffer solution): 0.4 mol %
- phenylacetaldehyde (mol %) generated from precursor ([4]; pH 5 buffer, 5 min, 37° C.): 41.2 mol %
- phenylacetaldehyde (mol %) generated from precursor ([4]; pH 5 buffer, 15 min, 37° C.): 72.1 mol %
- phenylacetaldehyde (mol %) generated from precursor ([4]; pH 5 buffer, 30 min, 37° C.): 87.7 mol %
- phenylacetaldehyde (mol %) generated from precursor ([4]; pH 7, Control without addition of buffer solution): 0.3 mol %
- phenylacetaldehyde (mol %) generated from precursor ([4]; pH 7 buffer, 5 min, 37° C.): 7.7 mol %
- phenylacetaldehyde (mol %) generated from precursor ([4]; pH 7 buffer, 15 min, 37° C.): 18.0 mol %
- phenylacetaldehyde (mol %) generated from precursor ([4]; pH 7 buffer, 30 min, 37° C.): 30.2 mol %
- phenylacetaldehyde (mol %) generated from precursor ([4]; pH 9, Control without addition of buffer solution): 0.3 mol %
- phenylacetaldehyde (mol %) generated from precursor ([4]; pH 9 buffer, 5 min, 37° C.): 4.9 mol %
- phenylacetaldehyde (mol %) generated from precursor ([4]; pH 9 buffer, 15 min, 37° C.): 7.1 mol %
- phenylacetaldehyde (mol %) generated from precursor ([4]; pH 9 buffer, 30 min, 37° C.): 14.3 mol %
SMILES: Cc1ccccc1C1N=CC(C)O1 (centres unmarked) [2-methylphenyl-5-methyl-3-oxazoline]

- methylpropanal (mol %) generated from precursor [1, 5]: 46.0 mol %
- methylpropanal (mol %) generated from precursor [1, 6]: 53.5 mol %
- methylpropanal (mol %) generated from precursor [1, 7]: 56.1 mol %
- methylpropanal (mol %) generated from precursor [1, 8]: 0.1 mol %
SMILES: CC1C=NC(C(C)C)O1 (single isomer, unassigned) [2-(1-methylethyl)-5-methyl-3-oxazoline]

Further lines, the compound ahead of its results:

SMILES: O=CCc1ccccc1 [phenylacetaldehyde]
- Concentration in “release sample” (after addition of saliva) [2]: < LoD (due to headspace
- Concentration in blank sample (prior addition of saliva) [2]: < LoD (due to headspace
- release from spiked chocolate after addition of water or saliva (PTR-MS) [3]: clearly increased

SMILES: CC(C)CC1N=CC(C)O1 (single isomer, unassigned) [2-(2-methylpropyl)-5-methyl-3-oxazoline isomer II, 2-(2-methylpropyl)-5-methyl-3-oxazoline]
- 3-methylbutanal (mol %) generated from precursor [1, 5]: 72.5 mol %
- isomer I (formed) (mol %) ([1]; 5 min, water 37° C.): 3.0 mol %
- isomer II (unreacted) (mol %) ([1]; 5 min, water 37° C.): 25.7 mol %
- 3-methylbutanal (mol %) generated from precursor [1, 6]: 81.4 mol %
- isomer I (formed) (mol %) ([1]; 15 min, water 37° C.): 3.7 mol %
- isomer II (unreacted) (mol %) ([1]; 15 min, water 37° C.): 16.7 mol %
- 3-methylbutanal (mol %) generated from precursor [1, 7]: 92.2 mol %
- isomer I (formed) (mol %) ([1]; 30 min, water 37° C.): 2.2 mol %
- isomer II (unreacted) (mol %) ([1]; 30 min, water 37° C.): 7.2 mol %
- 3-methylbutanal (mol %) generated from precursor [1, 10]: 0.4 mol %
- isomer I (formed) (mol %) [1, 9]: 1.7 mol %
- isomer II (unreacted) (mol %) [1, 9]: 98.3 mol %

SMILES: CC(C)CC=O [3-methylbutanal]
- Concentration in “release sample” (after addition of saliva) [2]: 4456 μg/kg of chocolate
- Concentration in blank sample (prior addition of saliva) [2]: 502 μg/kg of chocolate
- release from spiked chocolate after addition of water or saliva (PTR-MS) [3]: clearly increased

SMILES: CC(C)C=O [methylpropanal]
- Concentration in “release sample” (after addition of saliva) [2]: 1103 μg/kg of chocolate
- Concentration in blank sample (prior addition of saliva) [2]: 25.4 μg/kg of chocolate
- release from spiked chocolate after addition of water or saliva (PTR-MS) [3]: clearly increased

SMILES: CC(C)CC1N=CC(C)O1 (single isomer, unassigned) [2-(2-methylpropyl)-5-methyl-3-oxazoline isomer I, 2-(2-methylpropyl)-5-methyl-3-oxazoline]
- 3-methylbutanal (mol %) generated from precursor [1, 5]: 72.7 mol %
- isomer I (unreacted) (mol %) ([1]; 5 min, water 37° C.): 16.2 mol %
- isomer II (formed) (mol %) ([1]; 5 min, water 37° C.): 5.1 mol %
- 3-methylbutanal released / precursor converted to Strecker aldehyde ([1]; 5 min after addition of water at 37° C.): 73%
- 3-methylbutanal (mol %) generated from precursor [1, 6]: 82.4 mol %
- isomer I (unreacted) (mol %) ([1]; 15 min, water 37° C.): 8.4 mol %
- isomer II (formed) (mol %) ([1]; 15 min, water 37° C.): 10.2 mol %
- 3-methylbutanal (mol %) generated from precursor [1, 7]: 91.1 mol %
- isomer I (unreacted) (mol %) ([1]; 30 min, water 37° C.): 2.9 mol %
- isomer II (formed) (mol %) ([1]; 30 min, water 37° C.): 4.3 mol %
- 3-methylbutanal (mol %) generated from precursor [1, 10]: 0.3 mol %
- isomer I (unreacted) (mol %) [1, 9]: 98.1 mol %
- isomer II (formed) (mol %) [1, 9]: 1.9 mol %
- corresponding isomer II formed from purified isomer I ([1]; after 5 min, water 37° C.): 5%
- 3-methylbutanal released ([1]; after 15 min, water 37° C.): > 80%
- 3-methylbutanal released ([1]; after 30 min, water 37° C.): > 90% and 91%
